Patent publication US9302988B2, “Fluoromethyl-substituted pyrrole carboxamides” (GRÜNENTHAL GMBH, priority 2012, dated 2016)

The compounds below were run against T1, Human CaV2.2 channels (Homo sapiens, UniProt Q00975) (assay: Fluorescent assay for CaV2.2 channels using potassium depolarization to induce channel opening (FLIPR, Fluo-4)). Settings: 3 μM test compound, 30 mM KCl, HEK293 cells stably expressing human CaV2.2; read-out: %-Inhib (CaV2.2) @3 μM @30 mM KCl.
T1 construct: expressed in transfected cells
T1 sequence (Q00975 whole entry): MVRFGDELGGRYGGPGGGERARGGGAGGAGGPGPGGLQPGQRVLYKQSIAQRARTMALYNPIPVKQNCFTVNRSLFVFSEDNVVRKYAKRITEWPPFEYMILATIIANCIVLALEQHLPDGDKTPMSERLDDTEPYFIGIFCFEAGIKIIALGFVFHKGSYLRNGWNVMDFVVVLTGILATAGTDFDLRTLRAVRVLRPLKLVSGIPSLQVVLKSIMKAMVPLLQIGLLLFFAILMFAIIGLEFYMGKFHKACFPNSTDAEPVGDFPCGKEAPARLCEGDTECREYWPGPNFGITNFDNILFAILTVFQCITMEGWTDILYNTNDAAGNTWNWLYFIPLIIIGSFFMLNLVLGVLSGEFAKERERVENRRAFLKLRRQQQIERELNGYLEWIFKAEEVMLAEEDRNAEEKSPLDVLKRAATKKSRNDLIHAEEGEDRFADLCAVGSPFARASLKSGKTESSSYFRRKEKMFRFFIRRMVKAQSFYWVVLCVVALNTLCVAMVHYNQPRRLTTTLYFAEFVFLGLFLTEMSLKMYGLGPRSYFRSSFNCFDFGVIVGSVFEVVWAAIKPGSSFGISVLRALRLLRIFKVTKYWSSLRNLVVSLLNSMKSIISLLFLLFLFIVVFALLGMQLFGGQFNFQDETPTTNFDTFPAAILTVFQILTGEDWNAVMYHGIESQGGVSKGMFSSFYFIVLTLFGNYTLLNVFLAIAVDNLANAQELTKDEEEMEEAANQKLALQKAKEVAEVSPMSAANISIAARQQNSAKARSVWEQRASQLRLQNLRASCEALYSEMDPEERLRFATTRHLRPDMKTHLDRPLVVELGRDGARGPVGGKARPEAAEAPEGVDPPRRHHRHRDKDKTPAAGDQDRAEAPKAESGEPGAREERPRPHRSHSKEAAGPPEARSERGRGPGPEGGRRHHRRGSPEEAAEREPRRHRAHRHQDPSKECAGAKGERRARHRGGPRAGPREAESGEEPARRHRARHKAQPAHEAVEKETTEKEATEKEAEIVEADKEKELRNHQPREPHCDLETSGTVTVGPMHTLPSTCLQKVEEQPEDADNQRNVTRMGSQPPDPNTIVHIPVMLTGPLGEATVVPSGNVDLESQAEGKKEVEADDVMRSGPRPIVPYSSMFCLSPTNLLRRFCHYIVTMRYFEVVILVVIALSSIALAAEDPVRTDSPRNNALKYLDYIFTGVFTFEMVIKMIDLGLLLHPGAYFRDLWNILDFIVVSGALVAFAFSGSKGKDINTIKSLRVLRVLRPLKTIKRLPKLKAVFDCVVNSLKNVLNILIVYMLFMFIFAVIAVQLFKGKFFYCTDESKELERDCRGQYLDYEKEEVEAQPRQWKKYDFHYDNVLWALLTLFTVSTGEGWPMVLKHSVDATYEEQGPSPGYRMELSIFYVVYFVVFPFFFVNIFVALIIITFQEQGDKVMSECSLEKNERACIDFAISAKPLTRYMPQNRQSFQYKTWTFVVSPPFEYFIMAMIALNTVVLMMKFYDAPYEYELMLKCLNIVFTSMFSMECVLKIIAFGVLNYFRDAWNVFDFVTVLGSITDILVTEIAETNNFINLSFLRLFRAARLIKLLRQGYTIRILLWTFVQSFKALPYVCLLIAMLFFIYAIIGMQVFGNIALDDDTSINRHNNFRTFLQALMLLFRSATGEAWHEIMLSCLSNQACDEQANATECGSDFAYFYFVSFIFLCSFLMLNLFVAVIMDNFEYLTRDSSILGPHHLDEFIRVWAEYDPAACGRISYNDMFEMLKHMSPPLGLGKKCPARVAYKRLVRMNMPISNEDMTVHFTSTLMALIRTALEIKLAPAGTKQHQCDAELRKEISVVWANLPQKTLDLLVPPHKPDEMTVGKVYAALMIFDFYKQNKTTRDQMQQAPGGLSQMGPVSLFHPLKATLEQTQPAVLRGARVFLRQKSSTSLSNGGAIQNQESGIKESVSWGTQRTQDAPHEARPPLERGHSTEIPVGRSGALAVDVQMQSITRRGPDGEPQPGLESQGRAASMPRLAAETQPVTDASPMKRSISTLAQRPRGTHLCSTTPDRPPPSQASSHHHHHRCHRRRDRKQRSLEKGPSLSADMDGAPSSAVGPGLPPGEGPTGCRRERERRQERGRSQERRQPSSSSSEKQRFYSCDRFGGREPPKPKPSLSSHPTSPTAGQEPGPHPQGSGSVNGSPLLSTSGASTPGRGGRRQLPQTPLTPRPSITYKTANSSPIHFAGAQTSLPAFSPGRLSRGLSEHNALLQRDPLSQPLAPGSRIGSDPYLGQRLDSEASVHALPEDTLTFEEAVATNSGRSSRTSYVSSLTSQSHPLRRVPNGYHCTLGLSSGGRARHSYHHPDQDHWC
T1 sequence (P54289 25-1103, further chain): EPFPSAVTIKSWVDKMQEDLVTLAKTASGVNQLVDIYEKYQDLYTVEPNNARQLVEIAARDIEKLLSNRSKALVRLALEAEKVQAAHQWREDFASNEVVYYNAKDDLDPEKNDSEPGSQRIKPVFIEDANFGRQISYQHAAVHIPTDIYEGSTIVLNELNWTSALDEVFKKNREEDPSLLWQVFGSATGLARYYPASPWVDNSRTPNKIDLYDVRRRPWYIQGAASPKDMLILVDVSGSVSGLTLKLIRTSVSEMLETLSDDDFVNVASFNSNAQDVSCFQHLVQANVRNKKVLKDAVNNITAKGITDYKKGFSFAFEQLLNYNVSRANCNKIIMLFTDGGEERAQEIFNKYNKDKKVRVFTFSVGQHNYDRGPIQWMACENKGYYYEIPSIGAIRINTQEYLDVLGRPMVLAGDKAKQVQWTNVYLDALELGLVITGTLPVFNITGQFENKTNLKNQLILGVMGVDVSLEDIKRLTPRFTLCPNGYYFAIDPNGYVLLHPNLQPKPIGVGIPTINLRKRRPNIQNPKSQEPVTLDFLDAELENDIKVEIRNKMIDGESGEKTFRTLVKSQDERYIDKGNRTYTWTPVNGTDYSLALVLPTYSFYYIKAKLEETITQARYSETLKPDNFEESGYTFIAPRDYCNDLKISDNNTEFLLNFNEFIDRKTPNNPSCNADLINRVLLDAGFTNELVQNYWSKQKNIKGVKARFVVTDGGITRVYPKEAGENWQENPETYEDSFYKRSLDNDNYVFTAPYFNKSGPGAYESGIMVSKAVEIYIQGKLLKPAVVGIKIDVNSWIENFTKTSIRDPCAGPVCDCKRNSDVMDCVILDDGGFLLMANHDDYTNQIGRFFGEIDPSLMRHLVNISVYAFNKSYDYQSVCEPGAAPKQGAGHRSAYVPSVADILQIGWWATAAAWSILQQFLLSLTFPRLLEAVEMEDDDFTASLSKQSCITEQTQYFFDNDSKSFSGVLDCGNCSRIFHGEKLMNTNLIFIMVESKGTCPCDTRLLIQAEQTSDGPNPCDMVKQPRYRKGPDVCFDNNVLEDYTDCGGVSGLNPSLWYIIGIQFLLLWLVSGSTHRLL
T1 sequence (P54284 whole entry, further chain): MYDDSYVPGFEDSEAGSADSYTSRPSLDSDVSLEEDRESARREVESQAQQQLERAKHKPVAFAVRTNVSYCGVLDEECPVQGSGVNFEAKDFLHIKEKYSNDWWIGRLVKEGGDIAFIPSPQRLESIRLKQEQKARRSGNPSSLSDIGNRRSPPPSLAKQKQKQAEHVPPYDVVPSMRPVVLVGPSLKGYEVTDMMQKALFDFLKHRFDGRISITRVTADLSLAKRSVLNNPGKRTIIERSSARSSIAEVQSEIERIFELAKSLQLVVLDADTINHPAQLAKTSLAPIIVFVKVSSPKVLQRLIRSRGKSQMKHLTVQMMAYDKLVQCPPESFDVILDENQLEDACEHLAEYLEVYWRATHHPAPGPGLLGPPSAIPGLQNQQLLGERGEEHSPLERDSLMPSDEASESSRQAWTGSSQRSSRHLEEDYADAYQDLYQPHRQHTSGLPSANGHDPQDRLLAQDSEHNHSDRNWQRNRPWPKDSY
Format: cell-based
Summary of the method: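 HEK293 cells stably co-expressing CaV2.2 with α2δ and β subunits plus Kir2.3 were Fluo-4 loaded, then preincubated 15 min at 25 °C with compound in 30 mM KCl buffer, pH 7.4. Depolarization was by adding buffer containing 210 mM KCl. Inhibition was taken from baseline-normalized peak fluorescence amplitude (ex 480/em 535 nm).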

Compared with `Cc1c(-c2ccc(Cl)cc2F)c(C(=O)N(C)CCCS(C)(=O)=O)n(Cc2ccccc2)c1C(F)(F)F` [SC-161, 1-Benzyl-3-(4-chloro-2-fluoro-phenyl)-N,4-dimethyl-N-(3-methylsulfonyl-propyl)-5-(trifluoromethyl)-1H-pyrrole-2-carboxylic acid amide], `Cc1c(-c2ccc(Cl)cc2F)c(C(=O)N(CCS(C)(=O)=O)C(C)C)n(Cc2ccccc2)c1C(F)(F)F` [SC-169, 1-Benzyl-3-(4-chloro-2-fluoro-phenyl)-N-isopropyl-4-methyl-N-(2-methylsulfonyl-ethyl)-5-(trifluoromethyl)-1H-pyrrole-2-carboxylic acid amide] is lower in inhibition at 3 µM: > 95% for the first, 75 to 95% for the second.

`Cc1c(-c2ccc(Cl)cc2F)c(C(=O)N2CCCC2CS(C)(=O)=O)n(Cc2ccccc2)c1C(F)(F)F` (centres unmarked) [SC-162, [1-Benzyl-3-(4-chloro-2-fluoro-phenyl)-4-methyl-5-(trifluoromethyl)-1H-pyrrol-2-yl]-[2-(methylsulfonyl-methyl)-pyrrolidin-1-yl]-methanone] and `Cc1c(-c2ccc(Cl)cc2F)c(C(=O)N2CCC(CO)C2)n(Cc2ccccc2)c1C(F)(F)F` (centres unmarked) [SC-166, [1-Benzyl-3-(4-chloro-2-fluoro-phenyl)-4-methyl-5-(trifluoromethyl)-1H-pyrrol-2-yl]-[3-(hydroxymethyl)-pyrrolidin-1-yl]-methanone] cannot be ordered by inhibition at 3 µM: > 95% for the first, > 95% for the second.

First: Cc1c(-c2ccc(Cl)cc2F)c(C(=O)NCCS(C)(=O)=O)n(Cc2ccccc2)c1C(F)(F)F [SC-163, 1-Benzyl-3-(4-chloro-2-fluoro-phenyl)-4-methyl-N-(2-methylsulfonyl-ethyl)-5-(trifluoromethyl)-1H-pyrrole-2-carboxylic acid amide]
Second: Cc1c(-c2ccc(Cl)cc2F)c(C(=O)NC2CC2)n(Cc2ccccc2)c1C(F)(F)F [SC-172, 1-Benzyl-3-(4-chloro-2-fluoro-phenyl)-N-cyclopropyl-4-methyl-5-(trifluoromethyl)-1H-pyrrole-2-carboxylic acid amide]
The inhibition at 3 µM of the first is higher: > 95% for the first, 75 to 95% for the second.

`Cc1c(-c2ccc(Cl)cc2F)c(C(=O)N(C)CCC2CCCO2)n(Cc2ccccc2)c1C(F)(F)F` (centres unmarked) [SC-164, 1-Benzyl-3-(4-chloro-2-fluoro-phenyl)-N,4-dimethyl-N-(2-tetrahydro-furan-2-yl-ethyl)-5-(trifluoromethyl)-1H-pyrrole-2-carboxylic acid amide] and `Cc1c(-c2ccc(Cl)cc2F)c(C(=O)N(C)CC2CCCO2)n(Cc2ccccc2)c1C(F)(F)F` (centres unmarked) [SC-165, 1-Benzyl-3-(4-chloro-2-fluoro-phenyl)-N,4-dimethyl-N-(tetrahydro-furan-2-yl-methyl)-5-(trifluoromethyl)-1H-pyrrole-2-carboxylic acid amide] cannot be ordered by inhibition at 3 µM: > 95% for the first, > 95% for the second.

`Cc1c(-c2ccc(Cl)cc2F)c(C(=O)N(C)CC2CCOC2)n(Cc2ccccc2)c1C(F)(F)F` (centres unmarked) [SC-167, 1-Benzyl-3-(4-chloro-2-fluoro-phenyl)-N,4-dimethyl-N-(tetrahydro-furan-3-yl-methyl)-5-(trifluoromethyl)-1H-pyrrole-2-carboxylic acid amide] and `Cc1c(-c2ccc(Cl)cc2F)c(C(=O)N(C)C2CCS(=O)(=O)C2)n(Cc2ccccc2)c1C(F)(F)F` (centres unmarked) [SC-171, 1-Benzyl-3-(4-chloro-2-fluoro-phenyl)-N-(1,1-dioxo-thiolan-3-yl)-N,4-dimethyl-5-(trifluoromethyl)-1H-pyrrole-2-carboxylic acid amide] cannot be ordered by inhibition at 3 µM: > 95% for the first, > 95% for the second.

`Cc1c(-c2ccc(Cl)cc2F)c(C(=O)N(C)CC(C)(C)S(C)(=O)=O)n(Cc2ccccc2)c1C(F)(F)F` [SC-168, 1-Benzyl-3-(4-chloro-2-fluoro-phenyl)-N,4-dimethyl-N-(2-methyl-2-methylsulfonyl-propyl)-5-(trifluoromethyl)-1H-pyrrole-2-carboxylic acid amide] and `Cc1c(-c2ccc(Cl)cc2F)c(C(=O)N2CCS(=O)(=O)C(C)(C)C2)n(Cc2ccccc2)c1C(F)(F)F` [SC-170, [1-Benzyl-3-(4-chloro-2-fluoro-phenyl)-4-methyl-5-(trifluoromethyl)-1H-pyrrol-2-yl]-(2,2-dimethyl-1,1-dioxo-[1,4]thiazinan-4-yl)-methanone] cannot be ordered by inhibition at 3 µM: > 95% for the first, > 95% for the second.

`Cc1c(-c2ccc(Cl)cc2F)c(C(=O)N2CCS(=O)(=O)CC2)n(Cc2ccccc2)c1C(F)(F)F` [SC-173, [1-Benzyl-3-(4-chloro-2-fluoro-phenyl)-4-methyl-5-(trifluoromethyl)-1H-pyrrol-2-yl]-(1,1-dioxo-[1,4]thiazinan-4-yl)-methanone] and `CS(=O)(=O)C1CCN(C(=O)c2c(-c3ccc(Cl)cc3)cc(C(F)(F)F)n2Cc2ccccc2)C1` (centres unmarked) [SC-185, [1-Benzyl-3-(4-chlorophenyl)-5-(trifluoromethyl)-1H-pyrrol-2-yl]-(3-methylsulfonyl-pyrrolidin-1-yl)-methanone] cannot be ordered by inhibition at 3 µM: > 95% for the first, > 95% for the second.

First: CN(CC(C)(C)C(N)=O)C(=O)c1c(-c2ccc(Cl)cc2)cc(C(F)(F)F)n1Cc1ccccc1 [SC-174, 1-Benzyl-N-(2-carbamoyl-2-methyl-propyl)-3-(4-chlorophenyl)-N-methyl-5-(trifluoromethyl)-1H-pyrrole-2-carboxylic acid amide]
Second: CN(CC(C)(C)CN)C(=O)c1c(-c2ccc(Cl)cc2)cc(C(F)(F)F)n1Cc1ccccc1 [SC-188, N-(3-Amino-2,2-dimethyl-propyl)-1-benzyl-3-(4-chlorophenyl)-N-methyl-5-(trifluoromethyl)-1H-pyrrole-2-carboxylic acid amide]
The inhibition at 3 µM of the first is higher: > 95% for the first, 75 to 95% for the second.

First: CN(CCC(C)(C)O)C(=O)c1c(-c2ccc(Cl)cc2)cc(C(F)(F)F)n1Cc1ccccc1 [SC-176, 1-Benzyl-3-(4-chlorophenyl)-N-(3-hydroxy-3-methyl-butyl)-N-methyl-5-(trifluoromethyl)-1H-pyrrole-2-carboxylic acid amide]
Second: CN(C(=O)c1c(-c2ccc(Cl)cc2)cc(C(F)(F)F)n1Cc1ccccc1)C(C)(C)CCO [SC-184, 1-Benzyl-3-(4-chlorophenyl)-N-(3-hydroxy-1,1-dimethyl-propyl)-N-methyl-5-(trifluoromethyl)-1H-pyrrole-2-carboxylic acid amide]
The inhibition at 3 µM of the first is higher: > 95% for the first, 75 to 95% for the second.

`CC(C)(CO)CNC(=O)c1c(-c2ccc(Cl)cc2)cc(C(F)(F)F)n1Cc1ccccc1` [SC-177, 1-Benzyl-3-(4-chlorophenyl)-N-(3-hydroxy-2,2-dimethyl-propyl)-5-(trifluoromethyl)-1H-pyrrole-2-carboxylic acid amide] and `CN(CC(C)(CO)CO)C(=O)c1c(-c2ccc(Cl)cc2)cc(C(F)(F)F)n1Cc1ccccc1` [SC-183, 1-Benzyl-3-(4-chlorophenyl)-N-[3-hydroxy-2-(hydroxymethyl)-2-methyl-propyl]-N-methyl-5-(trifluoromethyl)-1H-pyrrole-2-carboxylic acid amide] cannot be ordered by inhibition at 3 µM: > 95% for the first, > 95% for the second.

`CN(CC1(CO)CC1)C(=O)c1c(-c2ccc(Cl)cc2)cc(C(F)(F)F)n1Cc1ccccc1` [SC-178, 1-Benzyl-3-(4-chlorophenyl)-N-[[1-(hydroxymethyl)-cyclopropyl]-methyl]-N-methyl-5-(trifluoromethyl)-1H-pyrrole-2-carboxylic acid amide] and `CN(CC1(CO)CCC1)C(=O)c1c(-c2ccc(Cl)cc2)cc(C(F)(F)F)n1Cc1ccccc1` [SC-179, 1-Benzyl-3-(4-chlorophenyl)-N-[[1-(hydroxymethyl)-cyclobutyl]-methyl]-N-methyl-5-(trifluoromethyl)-1H-pyrrole-2-carboxylic acid amide] cannot be ordered by inhibition at 3 µM: > 95% for the first, > 95% for the second.

First: CN(CC(C)(C)CN1CCOCC1)C(=O)c1c(-c2ccc(Cl)cc2)cc(C(F)(F)F)n1Cc1ccccc1 [SC-180, 1-Benzyl-3-(4-chlorophenyl)-N-(2,2-dimethyl-3-morpholin-4-yl-propyl)-N-methyl-5-(trifluoromethyl)-1H-pyrrole-2-carboxylic acid amide]
Second: CN(CC(C)(C)C#N)C(=O)c1c(-c2ccc(Cl)cc2)cc(C(F)(F)F)n1Cc1ccccc1 [SC-187, 1-Benzyl-3-(4-chlorophenyl)-N-(2-cyano-2-methyl-propyl)-N-methyl-5-(trifluoromethyl)-1H-pyrrole-2-carboxylic acid amide]
The inhibition at 3 µM of the first is lower: 75 to 95% for the first, > 95% for the second.

First: O=C(c1c(-c2ccc(Cl)cc2)cc(C(F)(F)F)n1Cc1ccccc1)N1CCC(CO)C1 (centres unmarked) [SC-181, [1-Benzyl-3-(4-chlorophenyl)-5-(trifluoromethyl)-1H-pyrrol-2-yl]-[3-(hydroxymethyl)-pyrrolidin-1-yl]-methanone]
Second: CN(CC1CCOC1)C(=O)c1c(-c2ccc(Cl)cc2)cc(C(F)(F)F)n1Cc1ccccc1 (centres unmarked) [SC-182, 1-Benzyl-3-(4-chlorophenyl)-N-methyl-N-(tetrahydro-furan-3-yl-methyl)-5-(trifluoromethyl)-1H-pyrrole-2-carboxylic acid amide]
The inhibition at 3 µM of the first is lower: 75 to 95% for the first, > 95% for the second.

`CN(C(=O)c1c(-c2ccc(Cl)cc2)cc(C(F)(F)F)n1Cc1ccccc1)C(CO)C(C)(C)C` (centres unmarked) [SC-186, 1-Benzyl-3-(4-chlorophenyl)-N-[1-(hydroxymethyl)-2,2-dimethyl-propyl]-N-methyl-5-(trifluoromethyl)-1H-pyrrole-2-carboxylic acid amide] and `CN(CCCS(C)(=O)=O)C(=O)c1c(-c2ccc(Cl)cc2)cc(C(F)(F)F)n1Cc1ccccc1` [SC-189, 1-Benzyl-3-(4-chlorophenyl)-N-methyl-N-(3-methylsulfonyl-propyl)-5-(trifluoromethyl)-1H-pyrrole-2-carboxylic acid amide] cannot be ordered by inhibition at 3 µM: > 95% for the first, > 95% for the second.

`CCN(CCS(C)(=O)=O)C(=O)c1c(-c2ccc(Cl)cc2)cc(C(F)(F)F)n1Cc1ccccc1` [SC-190, 1-Benzyl-3-(4-chlorophenyl)-N-ethyl-N-(2-methylsulfonyl-ethyl)-5-(trifluoromethyl)-1H-pyrrole-2-carboxylic acid amide] was tested, and the inhibition at 3 µM was > 95%.
